Data on 2 molecules can be found in patent US20150010474A1, “Compounds And Methods For Selective Imaging And/Or Ablation” (Auckland Uniservices Limited, priority 2011, published 2015).

For data set [1], the system named is human solid tumour xenograft HCT116 (WT). The data set can be described thus: Hypoxia-dependent binding by immunofluorescent microscopy with pimonidazole co-staining. The following applies: 60 mg/kg i.p., 60 minutes after 60 mg/kg pimonidazole; tumours excised after 120 minutes. Format: in vivo, NIH-III nude mice. The procedure: FIG. 9 illustrates the absence of hypoxic dependent binding of compound 67 in the human solid tumour xenograft HCT116 relative to compound 15 whilst including hypoxia co-staining by pimonidazole (Hypoxyprobe™) as an internal reference (positive control). HCT116 WT tumours were inoculated subcutaneously onto the flank of NIH-Ill nude mice. When the mixed tumours reached approximately 500 mm^3, mice were dosed i.p. with 60 mg/kg of pimonidazole, and 60 minutes later dosed with either 60 mg/kg of compound 15 or 60 mg/kg of compound 67. After 120 minutes the tumours were excised, and fixed in formalin before being embedded in paraffin wax. Tumour section were cut (5 microns) and mounted onto glass slides for immunodetection of bound adducts of compounds. Immunofluorescent microscopy was performed using a monoclonal antibody (Mab1, hybridoma clone 4.3.11.3) conjugated to Alexa-488 (green) for the detection of pimonidazole adducts, and monoclonal antibody ELK3-51 directly conjugated to the fluorophore CY5 (Ex/Em 650/670 nm) for detection of adducts formed by compound 15 or compound 67. The overlap of pimonidazole with either one of these markers appears as yellow. Images were acquired on a Zeiss LSM 710 confocal microscope (×20 magnification).

Data set [2] concerns E. coli SOS (DNA damage repair) response. Briefly: SOS assay (β-galactosidase activity) in NTR over-expression library. Format: cell-based, Escherichia coli. The following applies: 4 h challenge with 8 μM compound 67. The procedure: FIG. 2 illustrates the metabolism of compound 67 by members of the 58-membered NTR over-expression library as measured by (A) Growth Inhibition assay and (B) SOS assay. (A) Growth Inhibition assay. Turbidity (OD600) of NTR over-expressing cell cultures was recorded directly before and after 4 h incubation with 400 μM compound 67. Percentage Growth Inhibition represents the decrease in OD600 of challenged cells relative to unchallenged control cells for each strain post-incubation (i.e. 100−[100×OD600 of challenged cells/OD600 of unchallenged cells]). Data are the average of 2 independent assays and the error bars indicate ±1 standard deviation. Labelled bars indicate the NfsA and NfsB family members within the NTR library. (B) SOS assay. […] The data presented is the SOS response, measured by β-galactosidase activity (in Miller units), of NTR over-expressing E. coli SOS-R2 after 4 h challenge with 8 μM compound 67. Full details of assay protocol and calculations are as described in G A Prosser, J N Copp, S P Syddall, E M Williams, J B Smaill, W R Wilson, A V Patterson and D F Ackerley. 2010. Discovery and evaluation of Escherichia coli nitroreductases that activate the anti-cancer prodrug CB1954. Biochemical Pharmacology 79: 678-687. Data are the average of 2 independent assays and the error bars indicate ±1 standard deviation. […]

In data set [3] the test system is NfsB (E.s). The data set can be described thus: Initial rate of metabolism by purified recombinant bacterial nitroreductase (NADPH consumption, UV/Vis). Format: biochemical, Enterobacter (Chronobacter) sakazakii. The following applies: compound 500 μM, NADPH 200 μM, 10 mM Tris-Cl pH 7.0; μmol NADPH consumed per mg enzyme per minute. The procedure:
(§1) The relative initial rates of reductive metabolism of the nitro moiety of test compounds by bacterial nitroreductase's can be measured experimentally by incubating the test compound at near-saturating concentration (determined empirically) with the purified recombinant bacterial nitroreductase enzymes in the presence of NADPH co-factor. UV/Vis spectroscopy is used to measure consumption of the co-factor, indicating metabolism of the test compound by the nitroreductase.
(§2) Compounds 67, 93 and 97 (500 μM) were added to NADPH (200 μM) in 10 mM Tris-Cl pH 7.0. Reactions were initiated by enzyme addition (between 5 and 20 μg per reaction). Rates represent μmol of NADPH consumed per mg enzyme added per minute.

Data set [4] has as its target T1, NfrA (B.s) (Bacillus subtilis, UniProt P39605).
T1 construct: made in house
Described as above. The format is biochemical. Particulars: compound 500 μM, NADPH 200 μM, 10 mM Tris-Cl pH 7.0; μmol NADPH consumed per mg enzyme per minute. As for the experimental part: as §1, §2

Data set [5] deals with T2, CO-Frp (V.h) (Vibrio harveyi, UniProt Q56691).
T2 construct: made in house
T2 sequence (Q56691 whole entry): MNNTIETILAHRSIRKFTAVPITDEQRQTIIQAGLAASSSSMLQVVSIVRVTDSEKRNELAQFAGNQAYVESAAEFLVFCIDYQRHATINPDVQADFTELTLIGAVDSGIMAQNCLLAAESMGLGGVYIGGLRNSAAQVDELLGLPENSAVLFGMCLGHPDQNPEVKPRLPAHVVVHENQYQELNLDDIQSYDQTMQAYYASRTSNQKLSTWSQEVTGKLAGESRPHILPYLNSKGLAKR
Described as above. The following applies: compound 500 μM, NADPH 200 μM, 10 mM Tris-Cl pH 7.0; μmol NADPH consumed per mg enzyme per minute. Format: biochemical. As for the experimental part:
as §1, §2

Data set [6] has as its target T3, NfsA (E.c) (Escherichia coli, UniProt P17117).
T3 construct: made in house
The data set is described as above. Format: biochemical. The following applies: compound 500 μM, NADPH 200 μM, 10 mM Tris-Cl pH 7.0; μmol NADPH consumed per mg enzyme per minute. As for the experimental part: as §1, §2

Data set [7] concerns the target T4, NfsB (E.c) (Escherichia coli, UniProt P38489).
T4 construct: made in house
The data set is described as above. The format is biochemical. The following applies: compound 500 μM, NADPH 200 μM, 10 mM Tris-Cl pH 7.0; μmol NADPH consumed per mg enzyme per minute. As for the experimental part:
as §1, §2

T1 sequence (P39605 whole entry): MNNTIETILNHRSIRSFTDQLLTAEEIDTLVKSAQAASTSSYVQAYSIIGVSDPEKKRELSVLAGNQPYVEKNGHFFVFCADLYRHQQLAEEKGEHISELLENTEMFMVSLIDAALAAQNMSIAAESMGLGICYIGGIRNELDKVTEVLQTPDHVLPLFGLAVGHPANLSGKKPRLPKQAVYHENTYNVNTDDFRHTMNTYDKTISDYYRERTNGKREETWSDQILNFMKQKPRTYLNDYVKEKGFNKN
T3 sequence (P17117 whole entry): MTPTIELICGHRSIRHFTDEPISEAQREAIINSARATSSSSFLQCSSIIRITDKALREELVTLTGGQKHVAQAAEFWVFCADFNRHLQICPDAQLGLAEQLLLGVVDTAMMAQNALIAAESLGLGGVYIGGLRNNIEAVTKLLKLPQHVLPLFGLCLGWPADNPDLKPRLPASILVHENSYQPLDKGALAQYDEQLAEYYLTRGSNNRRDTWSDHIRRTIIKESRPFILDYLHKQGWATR
T4 sequence (P38489 whole entry): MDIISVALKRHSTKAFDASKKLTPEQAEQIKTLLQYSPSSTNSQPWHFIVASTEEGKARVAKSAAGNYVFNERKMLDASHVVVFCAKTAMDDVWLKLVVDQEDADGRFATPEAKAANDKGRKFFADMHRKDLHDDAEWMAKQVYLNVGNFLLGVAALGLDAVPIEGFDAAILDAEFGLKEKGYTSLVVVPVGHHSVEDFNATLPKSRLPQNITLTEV

One may read the melting point as the temperature of the solid-liquid transition. Regarding `Cc1ncc([N+](=O)[O-])n1CC(=O)NCC(F)(F)C(F)(F)F` [Compound 67, 2-(2-methyl-5-nitro-1H-imidazol-1-yl)-N-(2,2,3,3,3-pentafluoropropyl)acetamide], the melting point was 149 to 151 °C. In addition, in data set [1], the “Hypoxia-dependent binding in HCT116 WT tumours (FIG. 9)” value is “not detected in the pimonidazole positive hypoxic regions of the tumour”. In addition, the “SOS response upon activation” value in data set [2] is listed as “demonstrates an ability to evoke the E. coli SOS (DNA damage repair) response upon activation”. In data set [3], the “Rate of metabolism by NfsB (E.s)” value was 2.4 µmol/min/mg. The “Rate of metabolism by NfrA (B.s)” value in data set [4] came out at 1.7 µmol/min/mg. In data set [5], the “Rate of metabolism by CO-Frp (V.h)” value came to 1.1 µmol/min/mg. Further, the “Rate of metabolism by NfsA (E.c)” value in data set [6] worked out at 2.7 µmol/min/mg.

`O=C(Cn1cnc([N+](=O)[O-])c1)NCC(F)(F)C(F)(F)F` [Compound 93, 2-(4-nitro-1H-imidazol-1-yl)-N-(2,2,3,3,3-pentafluoropropyl)acetamide]: the “Rate of metabolism by NfrA (B.s)” value in data set [4] came to 7.5 µmol/min/mg. Also, the “Rate of metabolism by NfsB (E.c)” value in data set [7] was found to be 0.82 µmol/min/mg. Besides, the “Rate of metabolism by CO-Frp (V.h)” value in data set [5] amounted to 12.2 µmol/min/mg. Further, the “Rate of metabolism by NfsA (E.c)” value in data set [6] came to 7.6 µmol/min/mg.
